Source: patent publication US20150011751A1, “NOVEL TRIAZINE DERIVATIVE” (CARNA BIOSCIENCES, INC., priority 2012, published 2015)

Biological target: Dephosphorylated BTK (Homo sapiens, UniProt Q06187)
Assay: Test of activity inhibition against dephosphorylated BTK (mobility shift assay)

Chain of Dephosphorylated BTK (Q06187 whole entry): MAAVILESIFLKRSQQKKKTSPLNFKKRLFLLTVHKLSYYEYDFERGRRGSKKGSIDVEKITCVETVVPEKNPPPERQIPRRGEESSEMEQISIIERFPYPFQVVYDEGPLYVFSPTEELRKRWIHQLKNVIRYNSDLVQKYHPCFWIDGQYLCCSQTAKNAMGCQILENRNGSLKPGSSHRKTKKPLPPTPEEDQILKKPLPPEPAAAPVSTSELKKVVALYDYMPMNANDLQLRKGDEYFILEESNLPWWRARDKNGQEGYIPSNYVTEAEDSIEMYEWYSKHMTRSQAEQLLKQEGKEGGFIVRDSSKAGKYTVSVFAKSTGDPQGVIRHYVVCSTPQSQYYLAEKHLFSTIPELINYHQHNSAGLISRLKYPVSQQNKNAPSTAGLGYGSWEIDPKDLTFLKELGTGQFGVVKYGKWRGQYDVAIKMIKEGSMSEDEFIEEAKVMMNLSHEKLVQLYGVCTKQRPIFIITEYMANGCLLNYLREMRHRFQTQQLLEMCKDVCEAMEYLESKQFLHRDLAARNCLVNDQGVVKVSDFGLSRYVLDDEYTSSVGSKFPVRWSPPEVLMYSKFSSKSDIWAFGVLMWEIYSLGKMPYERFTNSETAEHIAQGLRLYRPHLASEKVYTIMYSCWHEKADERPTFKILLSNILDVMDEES

IC50 [pM] | Structure (SMILES)
2700 | Nc1nc(Nc2ccn(CCO)c2)nc(-c2cccc(N3CCc4cc(C5CC5)cc(F)c4C3=O)c2CO)n1 [Example 234, 2-[3-(4-Amino-6-{[1-(2-hydroxyethyl)-1H-pyrrol-3-yl]amino}-1,3,5-triazin-2-yl)-2-(hy-droxymethyl)phenyl]-6-cyclopropyl-8-fluoro-3,4-dihydroisoquinolin-1(2H)-one]
800 | Nc1nc(Nc2cnn([C@H]3CCOC3)c2)nc(-c2cccc(N3CCc4cc(C5CC5)cc(F)c4C3=O)c2CO)n1 [Example 235, (S)-2-[3-(4-Amino-6-{[1-(tetrahydrofuran-3-yl)-1H-pyrazol-4-yl]amino}-1,3,5-triazin-2-yl)-2-(hydroxymeth-yl)phenyl]-6-cyclopropyl-8-fluoro-3,4-dihydro-isoquinolin-1(2H)-one]
800 | Nc1nc(Nc2cnn([C@@H]3CCOC3)c2)nc(-c2cccc(N3CCc4cc(C5CC5)cc(F)c4C3=O)c2CO)n1 [Example 236, (R)-2-[3-(4-Amino-6-{[1-(tetrahydrofuran-3-yl)-1H-pyrazol-4-yl]amino}-1,3,5-triazin-2-yl)-2-(hydroxymeth-yl)phenyl]-6-cyclopropyl-8-fluoro-3,4-dihydro-isoquinolin-1(2H)-one]
800 | Nc1nc(Nc2cnn(CCN3CCOCC3)c2)nc(-c2cccc(N3CCc4cc(C5CC5)cc(F)c4C3=O)c2CO)n1 [Example 237, 2-[3-(4-Amino-6-{[1-(2-morpholinoethyl)-1H-pyrazol-4-yl]amino}-1,3,5-triazin-2-yl)-2-(hydroxymethyl)phenyl]-6-cyclopropyl-8-fluoro-3,4-dihydro-isoquinolin-1(2H)-one]
900 | Nc1nc(Nc2cnn(C3CC3)c2)nc(-c2cccc(N3CCc4cc(C5CC5)cc(F)c4C3=O)c2CO)n1 [Example 238, 2-(3-{4-Amino-6-[(1-cyclo-propyl-1H-pyrazol-4-yl)amino]-1,3,5-tri-azin-2-yl}-2-(hydroxy-methyl)phenyl)-6-cyclo-propyl-8-fluoro-3,4-dihydroisoquinolin-1 (2H)-one]
500 | Nc1nc(Nc2cnn(C3CCCC3)c2)nc(-c2cccc(N3CCc4cc(C5CC5)cc(F)c4C3=O)c2CO)n1 [Example 239, 2-(3-{4-Amino-6-[(1-cyclo-pentyl-1H-pyrazol-4-yl)amino]-1,3,5-tri-azin-2-yl}-2-(hydroxy-methyl)phenyl)-6-cyclo-propyl-8-fluoro-3,4-dihydroisoquinolin-1 (2H)-one]
1100 | Nc1nc(Nc2cnn(CC(F)(F)F)c2)nc(-c2cccc(N3CCc4cc(C5CC5)cc(F)c4C3=O)c2CO)n1 [Example 240, 2-[3-(4-Amino-6-{[1-(2,2,2-trifluoroethyl)-1H-pyrazol-4-yl]amino}-1,3,5-triazin-2-yl)-2-(hydroxymethyl)phe-nyl]-6-cyclopropyl-8-fluoro-3,4-dihydroiso-quinolin-1(2H)-one]
600 | CC(C)(C)n1cc(Nc2nc(N)nc(-c3cccc(N4CCc5cc(C6CC6)cc(F)c5C4=O)c3CO)n2)cn1 [Example 241, 2-[3-(4-Amino-6-{[1-(tert-butyl)-1H-pyrazol-4-yl]amino}-1,3,5-tri-azin-2-yl)-2-(hydroxy-methyl)phenyl]-6-cyclo-propyl-8-fluoro-3,4-dihydroisoquinolin-1(2H)-one]
1500 | Nc1nc(Nc2ccc(N3CCOCC3)c(F)c2)nc(-c2cccc(N3CCc4cc(C5CC5)cc(F)c4C3=O)c2CO)n1 [Example 242, 2-(3-{4-Amino-6-[(3-fluoro-4-morpholinophe-nyl)amino]-1,3,5-tri-azin-2-yl}-2-(hydroxymeth-yl)phenyl)-6-cyclo-propyl-8-fluoro-3,4-di-hydroisoquinolin-1(2H)-one]
2300 | Nc1nc(Nc2cccc(N3CCOCC3)c2)nc(-c2cccc(N3CCc4cc(C5CC5)cc(F)c4C3=O)c2CO)n1 [Example 243, 2-(3-{4-Amino-6-[(3-morpho-linophenyl)amino]-1,3,5-triazin-2-yl}-2-(hydroxymethyl)phe-nyl)-6-cyclopropyl-8-fluoro-3,4-dihydroiso-quinolin-1(2H)-one]
4600 | Nc1nc(Nc2ccc(N3CCCC3)cc2)nc(-c2cccc(N3CCc4cc(C5CC5)cc(F)c4C3=O)c2CO)n1 [Example 244, 2-[3-(4-Amino-6-{[4-(pyr-rolidin-1-yl)phenyl]amino}-1,3,5-triazin-2-yl)-2-(hydroxymeth-yl)phenyl]-6-cyclopro-pyl-8-fluoro-3,4-dihy-droisoquinolin-1(2H)-one]
5600 | CCN(CC)c1ccc(Nc2nc(N)nc(-c3cccc(N4CCc5cc(C6CC6)cc(F)c5C4=O)c3CO)n2)cc1 [Example 245, 2-[3-(4-Amino-6-{[4-(di-ethylamino)phenyl]a-mino}-1,3,5-triazin-2-yl)-2-(hydroxymethyl)phenyl]-6-cyclopropyl-8-fluoro-3,4-dihydro-isoquinolin-1(2H)-one]
2700 | CN(CCO)c1ccc(Nc2nc(N)nc(-c3cccc(N4CCc5cc(C6CC6)cc(F)c5C4=O)c3CO)n2)cc1 [Example 246, 2-{3-[4-Amino-6-({4-[(2-hydroxyethyl)(meth-yl)amino]phenyl}amino)-1,3,5-triazin-2-yl]-2-(hydroxymethyl)phe-nyl}-6-cyclopropyl-8-fluoro-3,4-dihydroiso-quinolin-1(2H)-one]
3200 | Nc1nc(Nc2ccn(CC3CC3)c2)nc(-c2cccc(N3CCc4cc(C5CC5)cc(F)c4C3=O)c2CO)n1 [Example 248, 2-[3-(4-Amino-6-{[1-(cyclo-propylmethyl)-1H-pyrrol-3-yl]amino}-1,3,5-triazin-2-yl)-2-(hydroxymethyl)phenyl]-6-cyclopropyl-8-fluoro-3,4-dihydroisoquinolin-1(2H)-one]
1000 | Nc1nc(Nc2ccn([C@H]3CCOC3)c2)nc(-c2cccc(N3CCc4cc(C5CC5)cc(F)c4C3=O)c2CO)n1 [Example 249, (S)-2-[3-(4-Amino-6-{[1-(tetrahydrofuran-3-yl)-1H-pyrrol-3-yl]ami-no}-1,3,5-triazin-2-yl)-2-(hydroyxmethyl)phenyl]-6-cyclopropyl-8-fluoro-3,4-dihydro-isoquinolin-1(2H)-one]
1500 | Nc1nc(Nc2ccn([C@@H]3CCOC3)c2)nc(-c2cccc(N3CCc4cc(C5CC5)cc(F)c4C3=O)c2CO)n1 [Example 250, (R)-2-[3-(4-Amino-6-{[1-(tetrahydrofuran-3-yl)-1H-pyrrol-3-yl]ami-no}-1,3,5-triazin-2-yl)-2-(hydroyxmethyl)phenyl]-6-cyclopropyl-8-fluoro-3,4-dihydro-isoquinolin-1(2H)-one]
400 | Cn1cc(Nc2nc(N)nc(-c3cccc(N4CCc5cc(C6CC6)cc(F)c5C4=O)c3CO)n2)cc1C(N)=O [Example 251, 4-({4-Amino-6-[3-(6-cyclo-propyl-8-fluoro-1-oxo-3,4-dihydroisoquino-lin-2(1H)-yl)-2-(hydroxy-methyl)phenyl]-1,3,5-triazin-2-yl}ami-no)-1-methyl-1H-pyr-role-2-carboxamide]
800 | CN1CCC(n2cc(Nc3nc(N)nc(-c4cccc(N5CCc6cc(C7CC7)cc(F)c6C5=O)c4CO)n3)cn2)CC1 [Example 252, 2-[3-(4-Amino-6-{[1-(1-methylpiperidin-4-yl)-1H-pyrazol-4-yl]ami-no}-1,3,5-triazin-2-yl)-2-(hydroxymethyl)phenyl]-6-cyclopropyl-8-fluoro-3,4-dihydro-isoquinolin-1(2H)-one]
800 | Nc1nc(Nc2cnn(CC(=O)N3CCOCC3)c2)nc(-c2cccc(N3CCc4cc(C5CC5)cc(F)c4C3=O)c2CO)n1 [Example 253, 2-[3-(4-Amino-6-{[1-(2-morpholino-2-oxoeth-yl)-1H-pyrazol-4-yl]ami-no}-1,3,5-triazin-2-yl)-2-(hydroxymethyl)phenyl]-6-cyclopropyl-8-fluoro-3,4-dihydro-isoquinolin-1(2H)-one]
1400 | Nc1nc(Nc2ccn(CC3CCOCC3)c2)nc(-c2cccc(N3CCc4cc(C5CC5)cc(F)c4C3=O)c2CO)n1 [Example 254, 2-{3-[4-Amino-6-({1-[(tetra-hydro-2H-pyran-4-yl)methyl]-1H-pyrrol-3-yl}amino)-1,3,5-tri-azin-2-yl]-2-(hydroxy-methyl)phenyl}-6-cyclo-propyl-8-fluoro-3,4-dihydroisoquinolin-1(2H)-one]
500 | NC(=O)c1cc(Nc2nc(N)nc(-c3cccc(N4CCc5cc(C6CC6)cc(F)c5C4=O)c3CO)n2)c[nH]1 [Example 255, 4-({4-Amino-6-[3-(6-cyclo-propyl-8-fluoro-1-oxo-3,4-dihydroisoquino-lin-2(1H)-yl)-2-(hydroxy-methyl)phenyl]-1,3,5-triazin-2-yl}ami-no)-1H-pyrrole-2-carboxamide]
600 | Nc1nc(Nc2cnn(CC3CCOCC3)c2)nc(-c2cccc(N3CCc4cc(C5CC5)cc(F)c4C3=O)c2CO)n1 [Example 257, 2-{3-[4-Amino-6-({1-[(tetra-hydro-2H-pyran-4-yl)methyl]-1H-pyrazol-4-yl}amino)-1,3,5-triazin-2-yl]-2-(hydroxy-methyl)phenyl}-6-cyclo-propyl-8-fluoro-3,4-dihydroisoquinolin-1(2H)-one]
900 | Nc1nc(Nc2cnn(CC(=O)N3CCCC3)c2)nc(-c2cccc(N3CCc4cc(C5CC5)cc(F)c4C3=O)c2CO)n1 [Example 260, 2-{3-[4-Amino-6-({1-[2-oxo-2-(pyrrolidin-1-yl)ethyl]-1H-pyrazol-4-yl}amino)-1,3,5-tri-azin-2-yl]-2-(hydroxy-methyl)phenyl}-6-cyclo-propyl-8-fluoro-3,4-dihydroisoquinolin-1 (2H)-one]
1500 | CC1(Cn2cc(Nc3nc(N)nc(-c4cccc(N5CCc6cc(C7CC7)cc(F)c6C5=O)c4CO)n3)cn2)COC1 [Example 261, 2-{3-[4-Amino-6-({1-[(3-methyloxetan-3-yl)methyl]-1H-pyrazol-4-yl}amino)-1,3,5-triazin-2-yl]-2-(hydroxymeth-yl)phenyl}-6-cyclopro-pyl-8-fluoro-3,4-di-hydroisoquinolin-1(1H)-one]
800 | CCCn1cc(Nc2nc(N)nc(-c3cccc(N4CCc5cc(C6CC6)cc(F)c5C4=O)c3CO)n2)cn1 [Example 262, 2-(3-{4-Amino-6-[(1-pro-pyl-1H-pyrazol-4-yl)amino]-1,3,5-triazin-2-yl}-2-(hydroxymeth-yl)phenyl)-6-cyclopro-pyl-8-fluoro-3,4-dihy-droisoquinolin-1(2H)-one]
